Reference: PMC7385619, “A triple action CDK4/6-PI3K-BET inhibitor with augmented cancer cell cytotoxicity” (Cell Discovery, 2020)
Read-outs that look alike come from different tables or passages of the source.

Key:
Assay in all cases: KINOMEscan assay (Eurofins DiscoverX)
Type in all cases: binding
[1] = molecular target: T1, kinome (kinase panel) (Homo sapiens, UniProt Q9UBF8); details: PIK4CB (Entrez PI4KB); 1000 nM; read-out: Percent Control
T1 construct: purchased Eurofins DiscoverX

[2] = molecular target: T2, kinome (kinase panel) (Homo sapiens, UniProt P57058); details: HUNK; 1000 nM; read-out: Percent Control
T2 construct: purchased Eurofins DiscoverX

[3] = molecular target: T3, kinome (kinase panel) (Homo sapiens, UniProt Q9Y2H1); details: NDR2 (Entrez STK38L); 1000 nM; read-out: Percent Control
T3 construct: purchased Eurofins DiscoverX

[4] = molecular target: T4, kinome (kinase panel) (Homo sapiens, UniProt P32298); details: GRK4; 1000 nM; read-out: Percent Control
T4 construct: purchased Eurofins DiscoverX

[5] = molecular target: T5, kinome (kinase panel) (Homo sapiens, UniProt P42338); details: PIK3CB; 1000 nM; read-out: Percent Control
T5 construct: purchased Eurofins DiscoverX

[6] = molecular target: T6, kinome (kinase panel) (Homo sapiens, UniProt Q6DT37); details: DMPK2 (Entrez CDC42BPG); 1000 nM; read-out: Percent Control
T6 construct: purchased Eurofins DiscoverX

[7] = molecular target: T7, kinome (kinase panel) (Homo sapiens, UniProt P43403); details: ZAP70; 1000 nM; read-out: Percent Control
T7 construct: purchased Eurofins DiscoverX

[8] = molecular target: T8, kinome (kinase panel) (Homo sapiens, UniProt Q16584); details: MLK3 (Entrez MAP3K11); 1000 nM; read-out: Percent Control
T8 construct: purchased Eurofins DiscoverX

[9] = molecular target: T9, kinome (kinase panel) (Homo sapiens, UniProt O76039); details: CDKL5; 1000 nM; read-out: Percent Control
T9 construct: purchased Eurofins DiscoverX

[10] = molecular target: T10, kinome (kinase panel) (Homo sapiens, UniProt Q96BR1); details: SGK3; 1000 nM; read-out: Percent Control
T10 construct: purchased Eurofins DiscoverX

[11] = molecular target: T11, kinome (kinase panel) (Homo sapiens, UniProt Q9BRS2); details: RIOK1; 1000 nM; read-out: Percent Control
T11 construct: purchased Eurofins DiscoverX

[12] = molecular target: T12, kinome (kinase panel) (Homo sapiens, UniProt Q9UPZ9); details: ICK; 1000 nM; read-out: Percent Control
T12 construct: purchased Eurofins DiscoverX

[13] = molecular target: T13, kinome (kinase panel) (Homo sapiens, UniProt P36888, K663Q); details: […]; 1000 nM; read-out: Percent Control
T13 construct: purchased Eurofins DiscoverX

[14] = molecular target: T14, kinome (kinase panel) (Homo sapiens, UniProt Q13188); details: MST2 (Entrez STK3); 1000 nM; read-out: Percent Control
T14 construct: purchased Eurofins DiscoverX

[15] = molecular target: T15, kinome (kinase panel) (Homo sapiens, UniProt P00519, Y253F); details: read-out: Percent Control
T15 construct: purchased Eurofins DiscoverX

[16] = molecular target: T16, kinome (kinase panel) (Homo sapiens, UniProt O75385); details: ULK1; 1000 nM; read-out: Percent Control
T16 construct: purchased Eurofins DiscoverX

[17] = molecular target: T17, kinome (kinase panel) (Homo sapiens, UniProt O00238); details: BMPR1B; 1000 nM; read-out: Percent Control
T17 construct: purchased Eurofins DiscoverX

[18] = molecular target: T18, kinome (kinase panel) (Homo sapiens, UniProt Q9P289); details: MST4; 1000 nM; read-out: Percent Control
T18 construct: purchased Eurofins DiscoverX

[19] = molecular target: T19, kinome (kinase panel) (Homo sapiens, UniProt P23458); details: 1000 nM, read-out: Percent Control
T19 construct: purchased Eurofins DiscoverX

[20] = molecular target: T20, kinome (kinase panel) (Homo sapiens, UniProt Q9H4B4); details: PLK3; 1000 nM; read-out: Percent Control
T20 construct: purchased Eurofins DiscoverX

[21] = molecular target: T21, kinome (kinase panel) (Homo sapiens, UniProt P00519, M351T); details: read-out: Percent Control
T21 construct: purchased Eurofins DiscoverX

[22] = molecular target: T22, kinome (kinase panel) (Homo sapiens, UniProt Q8TDX7); details: NEK7; 1000 nM; read-out: Percent Control
T22 construct: purchased Eurofins DiscoverX

[23] = molecular target: T23, kinome (kinase panel) (Homo sapiens, UniProt Q96SB4); details: SRPK1; 1000 nM; read-out: Percent Control
T23 construct: purchased Eurofins DiscoverX

[24] = molecular target: T24, kinome (kinase panel) (Homo sapiens, UniProt P10721, A829P); details: […]; 1000 nM; read-out: Percent Control
T24 construct: purchased Eurofins DiscoverX

[25] = molecular target: T25, kinome (kinase panel) (Homo sapiens, UniProt P51451); details: BLK; 1000 nM; read-out: Percent Control
T25 construct: purchased Eurofins DiscoverX

[26] = molecular target: T26, kinome (kinase panel) (Homo sapiens, UniProt P53350); details: PLK1; 1000 nM; read-out: Percent Control
T26 construct: purchased Eurofins DiscoverX

[27] = molecular target: T27, kinome (kinase panel) (Homo sapiens, UniProt P00533, DEL752-759); details: EGFR(S752-I759del); 1000 nM; read-out: Percent Control
T27 construct: purchased Eurofins DiscoverX

[28] = molecular target: T28, kinome (kinase panel) (Homo sapiens, UniProt Q9UL54); details: TAOK2; 1000 nM; read-out: Percent Control
T28 construct: purchased Eurofins DiscoverX

[29] = molecular target: T29, kinome (kinase panel) (Homo sapiens, UniProt Q32MK0); details: MLCK (Entrez MYLK3); 1000 nM; read-out: Percent Control
T29 construct: purchased Eurofins DiscoverX

[30] = molecular target: T30, kinome (kinase panel) (Homo sapiens, UniProt Q13177); details: PAK2; 1000 nM; read-out: Percent Control
T30 construct: purchased Eurofins DiscoverX

[31] = molecular target: T31, kinome (kinase panel) (Homo sapiens, UniProt Q8NG66); details: NEK11; 1000 nM; read-out: Percent Control
T31 construct: purchased Eurofins DiscoverX

[32] = molecular target: T32, kinome (kinase panel) (Homo sapiens, UniProt Q9UKE5); details: TNIK; 1000 nM; read-out: Percent Control
T32 construct: purchased Eurofins DiscoverX

[33] = molecular target: T33, kinome (kinase panel) (Homo sapiens, UniProt P42684); details: ABL2; 1000 nM; read-out: Percent Control
T33 construct: purchased Eurofins DiscoverX

T19 sequence (P23458 whole entry): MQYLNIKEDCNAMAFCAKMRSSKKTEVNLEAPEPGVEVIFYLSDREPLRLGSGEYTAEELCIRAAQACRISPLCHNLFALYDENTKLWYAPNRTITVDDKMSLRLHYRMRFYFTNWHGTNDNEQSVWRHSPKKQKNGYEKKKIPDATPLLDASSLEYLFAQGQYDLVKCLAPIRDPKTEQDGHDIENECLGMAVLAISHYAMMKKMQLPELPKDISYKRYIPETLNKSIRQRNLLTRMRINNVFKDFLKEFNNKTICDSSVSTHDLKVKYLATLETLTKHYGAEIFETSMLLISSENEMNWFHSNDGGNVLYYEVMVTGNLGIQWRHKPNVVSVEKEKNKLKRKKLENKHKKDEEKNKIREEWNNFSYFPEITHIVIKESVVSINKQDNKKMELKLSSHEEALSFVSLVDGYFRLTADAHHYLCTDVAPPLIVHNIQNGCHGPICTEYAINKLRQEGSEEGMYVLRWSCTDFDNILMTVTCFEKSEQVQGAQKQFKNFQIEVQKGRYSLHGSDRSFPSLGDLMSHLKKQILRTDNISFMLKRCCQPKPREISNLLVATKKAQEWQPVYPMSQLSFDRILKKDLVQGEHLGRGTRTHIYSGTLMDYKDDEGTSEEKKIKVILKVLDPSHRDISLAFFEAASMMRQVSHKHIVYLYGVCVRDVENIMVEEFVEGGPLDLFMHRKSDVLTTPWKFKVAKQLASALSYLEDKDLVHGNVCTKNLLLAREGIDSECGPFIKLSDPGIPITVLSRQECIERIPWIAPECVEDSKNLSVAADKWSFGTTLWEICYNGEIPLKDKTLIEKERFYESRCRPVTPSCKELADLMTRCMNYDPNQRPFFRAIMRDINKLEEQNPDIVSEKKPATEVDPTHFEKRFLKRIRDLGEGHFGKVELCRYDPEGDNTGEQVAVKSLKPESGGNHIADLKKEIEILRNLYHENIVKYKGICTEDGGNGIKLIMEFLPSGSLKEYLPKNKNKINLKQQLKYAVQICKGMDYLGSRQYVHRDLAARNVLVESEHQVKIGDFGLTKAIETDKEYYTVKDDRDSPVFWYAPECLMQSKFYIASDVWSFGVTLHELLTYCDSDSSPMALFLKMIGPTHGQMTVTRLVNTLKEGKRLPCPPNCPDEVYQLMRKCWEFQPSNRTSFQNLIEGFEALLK
T18 sequence (Q9P289 whole entry): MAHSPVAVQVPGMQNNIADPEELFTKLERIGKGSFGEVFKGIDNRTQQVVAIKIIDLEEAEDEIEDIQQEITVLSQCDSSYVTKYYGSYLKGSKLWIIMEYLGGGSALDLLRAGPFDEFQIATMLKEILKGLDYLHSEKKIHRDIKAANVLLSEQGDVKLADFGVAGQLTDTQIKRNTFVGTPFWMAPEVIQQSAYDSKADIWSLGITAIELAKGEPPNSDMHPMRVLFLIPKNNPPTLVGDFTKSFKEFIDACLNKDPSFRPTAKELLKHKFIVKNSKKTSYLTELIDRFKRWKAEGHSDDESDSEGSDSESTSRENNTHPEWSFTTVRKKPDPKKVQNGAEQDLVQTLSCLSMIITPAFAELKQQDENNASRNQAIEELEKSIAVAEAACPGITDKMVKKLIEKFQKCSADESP
T12 sequence (Q9UPZ9 whole entry): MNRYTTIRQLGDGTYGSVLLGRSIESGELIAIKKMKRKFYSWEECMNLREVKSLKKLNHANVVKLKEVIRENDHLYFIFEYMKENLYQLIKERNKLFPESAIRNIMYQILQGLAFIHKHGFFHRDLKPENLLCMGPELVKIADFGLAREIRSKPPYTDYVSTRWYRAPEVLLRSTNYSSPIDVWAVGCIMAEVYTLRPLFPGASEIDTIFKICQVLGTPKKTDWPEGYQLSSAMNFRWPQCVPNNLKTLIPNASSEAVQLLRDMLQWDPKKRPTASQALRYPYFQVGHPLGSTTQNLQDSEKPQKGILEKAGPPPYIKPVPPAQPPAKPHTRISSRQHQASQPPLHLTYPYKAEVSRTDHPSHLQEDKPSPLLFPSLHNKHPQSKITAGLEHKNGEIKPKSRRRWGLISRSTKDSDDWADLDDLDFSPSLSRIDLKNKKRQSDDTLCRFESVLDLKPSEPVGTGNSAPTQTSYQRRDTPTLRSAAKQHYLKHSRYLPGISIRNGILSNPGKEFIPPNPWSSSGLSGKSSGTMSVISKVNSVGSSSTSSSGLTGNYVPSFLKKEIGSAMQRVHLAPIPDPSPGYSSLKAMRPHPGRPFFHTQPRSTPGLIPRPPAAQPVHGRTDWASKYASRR
T5 sequence (P42338 whole entry): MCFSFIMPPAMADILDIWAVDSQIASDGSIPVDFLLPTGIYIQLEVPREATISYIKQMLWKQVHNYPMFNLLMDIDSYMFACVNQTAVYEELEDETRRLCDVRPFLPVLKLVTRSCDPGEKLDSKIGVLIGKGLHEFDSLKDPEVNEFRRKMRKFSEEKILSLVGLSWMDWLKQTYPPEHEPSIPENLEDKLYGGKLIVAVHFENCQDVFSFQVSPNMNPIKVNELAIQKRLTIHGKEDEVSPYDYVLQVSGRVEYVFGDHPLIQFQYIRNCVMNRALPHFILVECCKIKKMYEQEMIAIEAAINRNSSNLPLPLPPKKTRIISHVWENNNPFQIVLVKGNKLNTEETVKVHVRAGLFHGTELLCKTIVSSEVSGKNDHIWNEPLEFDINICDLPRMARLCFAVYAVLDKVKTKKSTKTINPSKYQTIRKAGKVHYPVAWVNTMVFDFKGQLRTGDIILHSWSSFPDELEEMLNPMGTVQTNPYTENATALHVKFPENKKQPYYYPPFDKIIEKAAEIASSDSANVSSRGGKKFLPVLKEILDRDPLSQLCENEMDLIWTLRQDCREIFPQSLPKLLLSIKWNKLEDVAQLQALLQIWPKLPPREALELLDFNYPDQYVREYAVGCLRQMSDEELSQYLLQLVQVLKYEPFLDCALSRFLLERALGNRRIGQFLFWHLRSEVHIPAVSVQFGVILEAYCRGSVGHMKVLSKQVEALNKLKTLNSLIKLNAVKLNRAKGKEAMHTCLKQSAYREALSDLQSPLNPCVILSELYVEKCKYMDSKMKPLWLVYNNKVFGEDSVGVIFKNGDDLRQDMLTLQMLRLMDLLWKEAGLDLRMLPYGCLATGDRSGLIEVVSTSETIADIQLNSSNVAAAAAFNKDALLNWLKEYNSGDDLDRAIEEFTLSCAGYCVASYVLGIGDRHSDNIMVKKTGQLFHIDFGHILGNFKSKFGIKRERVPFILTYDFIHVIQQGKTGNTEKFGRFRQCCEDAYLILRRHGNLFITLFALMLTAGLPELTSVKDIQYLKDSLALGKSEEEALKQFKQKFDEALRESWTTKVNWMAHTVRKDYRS
T14 sequence (Q13188 whole entry): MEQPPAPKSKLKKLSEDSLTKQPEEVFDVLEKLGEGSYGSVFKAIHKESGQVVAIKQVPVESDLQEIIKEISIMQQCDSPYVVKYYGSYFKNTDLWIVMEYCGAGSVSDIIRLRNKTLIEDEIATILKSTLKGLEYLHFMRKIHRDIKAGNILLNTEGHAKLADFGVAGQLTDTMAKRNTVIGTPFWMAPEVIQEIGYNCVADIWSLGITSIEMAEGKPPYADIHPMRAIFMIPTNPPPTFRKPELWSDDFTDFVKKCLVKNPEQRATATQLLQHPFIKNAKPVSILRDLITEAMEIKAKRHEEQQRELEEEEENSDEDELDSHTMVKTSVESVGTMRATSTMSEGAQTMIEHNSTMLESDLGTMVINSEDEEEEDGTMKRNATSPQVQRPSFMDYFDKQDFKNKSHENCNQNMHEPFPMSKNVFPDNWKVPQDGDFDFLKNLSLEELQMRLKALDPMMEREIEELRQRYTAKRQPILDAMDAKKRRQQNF
T2 sequence (P57058 whole entry): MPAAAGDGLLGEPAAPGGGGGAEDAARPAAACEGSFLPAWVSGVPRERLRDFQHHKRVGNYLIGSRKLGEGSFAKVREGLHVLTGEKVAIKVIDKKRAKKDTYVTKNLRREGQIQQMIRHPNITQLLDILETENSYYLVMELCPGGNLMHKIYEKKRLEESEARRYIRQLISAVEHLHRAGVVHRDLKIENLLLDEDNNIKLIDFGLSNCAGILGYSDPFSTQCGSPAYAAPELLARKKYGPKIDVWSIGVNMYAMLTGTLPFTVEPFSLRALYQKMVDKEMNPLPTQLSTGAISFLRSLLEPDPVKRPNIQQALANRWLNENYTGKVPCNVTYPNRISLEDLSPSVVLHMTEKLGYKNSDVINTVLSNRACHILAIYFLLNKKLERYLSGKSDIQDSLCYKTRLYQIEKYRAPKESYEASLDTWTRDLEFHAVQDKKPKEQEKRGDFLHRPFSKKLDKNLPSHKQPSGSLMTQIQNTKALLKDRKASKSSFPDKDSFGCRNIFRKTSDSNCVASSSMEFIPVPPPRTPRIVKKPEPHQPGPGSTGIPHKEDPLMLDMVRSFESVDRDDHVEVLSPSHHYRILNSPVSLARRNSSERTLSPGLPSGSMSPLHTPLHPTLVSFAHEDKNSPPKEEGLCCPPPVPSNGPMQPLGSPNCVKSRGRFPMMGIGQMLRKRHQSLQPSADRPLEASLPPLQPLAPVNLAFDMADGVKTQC
T11 sequence (Q9BRS2 whole entry): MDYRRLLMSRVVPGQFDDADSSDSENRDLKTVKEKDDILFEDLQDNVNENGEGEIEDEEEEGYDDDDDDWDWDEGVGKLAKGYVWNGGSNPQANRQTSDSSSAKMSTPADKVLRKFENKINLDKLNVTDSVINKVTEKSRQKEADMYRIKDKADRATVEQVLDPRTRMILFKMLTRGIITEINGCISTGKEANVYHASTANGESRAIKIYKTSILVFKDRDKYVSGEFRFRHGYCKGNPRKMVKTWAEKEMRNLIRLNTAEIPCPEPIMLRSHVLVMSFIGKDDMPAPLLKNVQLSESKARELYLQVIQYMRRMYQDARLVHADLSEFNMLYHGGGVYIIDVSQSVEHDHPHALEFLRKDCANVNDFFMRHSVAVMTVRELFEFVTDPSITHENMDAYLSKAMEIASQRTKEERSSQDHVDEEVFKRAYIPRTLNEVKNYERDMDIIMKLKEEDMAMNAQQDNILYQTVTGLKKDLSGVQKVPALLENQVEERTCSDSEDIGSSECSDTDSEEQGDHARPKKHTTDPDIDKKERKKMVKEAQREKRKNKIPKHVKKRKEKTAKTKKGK

`CN(C)C(=O)c1cc2cnc(Nc3ccc(-c4csc5c(=O)cc(N6CCOCC6)oc45)cc3)nc2n1C1CCCC1` [SRX3177] was tested, and the remaining binding at 1 µM [1] was 19%, the remaining binding at 1 µM [2] was 100% and the remaining binding at 1 µM [3] was 90%. It also gave a remaining binding at 1 µM [4] of 39%, a remaining binding at 1 µM [5] of 22% and a remaining binding at 1 µM [6] of 91%. For the same molecule, the remaining binding at 1 µM [7] was 100%, the remaining binding at 1 µM [8] was 73% and the remaining binding at 1 µM [9] was 65%. For the same molecule, the remaining binding at 1 µM [10] was 100%, the remaining binding at 1 µM [11] was 18% and the remaining binding at 1 µM [12] was 9.8%. The remaining binding at 1 µM [13] was 93%, the remaining binding at 1 µM [14] was 61% and the remaining binding at 1 µM [15] was 72%. For the same molecule, the remaining binding at 1 µM [16] was 90%, the remaining binding at 1 µM [17] was 19% and the remaining binding at 1 µM [18] was 41%. It also gave a remaining binding at 1 µM ([19]; JAK1(JH1domain-catalytic)) of 96%, a remaining binding at 1 µM ([19]; JAK1(JH2domain-pseudokinase)) of 9.5% and a remaining binding at 1 µM [20] of 79%. It also gave a remaining binding at 1 µM [21] of 49%, a remaining binding at 1 µM [22] of 100% and a remaining binding at 1 µM [23] of 22%. For the same molecule, the remaining binding at 1 µM [24] was 1.6%, the remaining binding at 1 µM [25] was 100% and the remaining binding at 1 µM [26] was 75%. The remaining binding at 1 µM [27] was 100%, the remaining binding at 1 µM [28] was 20% and the remaining binding at 1 µM [29] was 100%. The remaining binding at 1 µM [30] was 78%, the remaining binding at 1 µM [31] was 99% and the remaining binding at 1 µM [32] was 95%. It also gave a remaining binding at 1 µM [33] of 81%.
